Where two headings read alike, the source gives them in different places.
Legend:
[1] = target: T1, prostaglandin H synthase (cyclooxygenase) (Ovis aries, UniProt P05979); test: In vitro inhibition of cyclooxygenase (polarographic oxygen consumption, conversion of arachidonic acid to prostaglandin H2); format: biochemical, sheep; details: for IC50: sheep vesicular gland microsomal enzyme, pH 7.4, 30° C.; for less effective inhibitors of cyclooxygenase activity in vitro: versus free carboxylic acid analogues
T1 construct: sheep vesicular gland microsomal powder; from tissue; host or cells: sheep vesicular gland (lipid-depleted microsomal powder, solubilized)
T1 sequence (P05979 25-600): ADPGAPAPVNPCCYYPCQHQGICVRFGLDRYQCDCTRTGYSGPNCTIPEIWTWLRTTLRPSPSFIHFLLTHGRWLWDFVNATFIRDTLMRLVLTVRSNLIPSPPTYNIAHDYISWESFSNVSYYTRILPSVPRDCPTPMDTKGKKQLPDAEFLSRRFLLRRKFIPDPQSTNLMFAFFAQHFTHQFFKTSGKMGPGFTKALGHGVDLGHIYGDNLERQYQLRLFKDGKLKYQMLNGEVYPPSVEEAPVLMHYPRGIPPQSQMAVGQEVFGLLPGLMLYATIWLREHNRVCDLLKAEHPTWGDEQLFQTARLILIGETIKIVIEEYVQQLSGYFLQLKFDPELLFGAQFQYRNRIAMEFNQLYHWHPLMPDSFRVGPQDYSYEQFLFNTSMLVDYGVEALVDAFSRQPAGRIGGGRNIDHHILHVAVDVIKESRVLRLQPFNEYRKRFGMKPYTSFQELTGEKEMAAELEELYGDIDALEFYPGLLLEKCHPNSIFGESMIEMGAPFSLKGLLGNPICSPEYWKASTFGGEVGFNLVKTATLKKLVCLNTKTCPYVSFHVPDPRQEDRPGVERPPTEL
Experimental: In vitro anti-inflammatory activity of 2-amino-3-benzoylbenzeneacetic acid analogues was tested by polarographically monitoring the inhibition in the rate of oxygen consumption (Cook H. W., Ford G., and Lands WEM, Anal. Biochem. 96:341, 1979) in the conversion of arachidonic acid to prostaglandin H2 by prostaglandin H synthase (cyclooxygenase). Cyclooxygenase enzyme was prepared by solubilizing 20 mg of lipid-depletedsheep vesicular gland microsomal powder (Graff G., Stephenson J. H., et al., J. Biol. Chem. 253:7662, 1978) in 1.0 mL of buffer containing 50 mM phosphate, 5 mM diethyldithiocarbamic acid, and 2 μM hematin (pH 7.4). Incubations were carried out at 30° C. with a YSI-oxygen monitor (Model 53) in 50 mM phosphate/0.5 mM phenol buffer (pH 7.4) as described elsewhere (Graff G., and Anderson L. A., Prostaglandins 38:473, 1989).

[2] = tested on: iris/ciliary body prostaglandin synthesis; test: Ex vivo inhibition of iris/ciliary body prostaglandin synthesis after topical dosing; format: in vivo, New Zealand Albino (NZA) rabbits; details: for inhibition in vivo at 0.1 %: Oryctolagus cuniculus, 1 h, single topical dose of 0.1% drug solution/suspension 60 minutes prior to iris/ciliary body isolation, read-out: Ex Vivo Iris/Ciliary Body Total Prostaglandin Synthesis Inhibition
Experimental: Ex vivo anti-inflammatory activity of 2-amino-3-benzoylbenzeneacetic acid analogues was evaluated in naive New Zealand Albino (NZA) rabbits. In this test animals were dosed bilaterally with a single 50 μL aliquot of a 0.1% solution/suspension of vehicle, formulated test or reference compound. After 60 minutes of treatment, animals were euthanized, iris/ciliary body (ICB) quickly excised and placed into ice-cold PBS buffer (pH 7.4). The tissue was then weighed, homogenized in ice-cold 50 mM phosphate/0.5 mM phenol buffer (pH 7.4) and incubated for 10 minutes at 37° C. with 10 μM of [1-^14 C]-20:4.

[3] = tested on: trauma-induced breakdown of the blood-aqueous-barrier; test: In vivo trauma-induced (paracentesis) breakdown of the blood-aqueous-barrier: aqueous humor PGE2 and protein; design: species or system New Zealand Albino (NZA) rabbits; details: for inhibition in vivo at 0.1 %: Oryctolagus cuniculus, 0.5 h, read-out: In Vivo Paracentesis Protein Extravasation Inhibition
Experimental: In vivo anti-inflammatory activity of 2-amino-3-benzoylbenzeneacetic acid analogues was evaluated in the model of trauma-induced breakdown of the blood-aqueous-barrier in New Zealand Albino (NZA) rabbits. Animals were anesthetized prior to bilateral administration of a single topical 50 μL dose of a 0.1% solution/suspension of formulated test or reference compound. After 45 minutes of treatment ocular trauma was induced by paracentesis.

[4] = single topical dose of 0.1% drug solution/suspension 45 minutes prior to paracentesis, plasma protein influx into aqueous humor
[5] = single topical dose of 0.1% drug solution/suspension 45 minutes prior to paracentesis

Structure (SMILES) | IC50 [1] [µM] | less effective inhibitors of cyclooxygenase activity in vitro [1] | inhibition in vivo at 0.1 % [2] [%] | inhibition in vivo at 0.1 % [3, 4] [%] | In Vivo Aqueous Humor PGE2 Accumulation Inhibition [3, 5] [%] | spectrum of inhibition of iris/ciliary body prostaglandins ([2]; individual prostaglandins) | ex vivo iris/ciliary body prostaglandin synthesis inhibition, result in words ([2]; rabbit, in vivo) | in vitro cyclooxygenase inhibition, result in words [1] | in vivo anti-inflammatory activity, result in words [3] | inhibition in vivo at 0.1 % [3] [%] | in vivo anti-inflammatory activity, result in words ([3]; plasma protein influx and aqueous humor PGE2 accumulation)
NC(=O)Cc1cccc(C(=O)c2ccc(F)cc2)c1N [Compound 7, 2-Amino-3-(4-fluorobenzoyl)-phenylacetamide] | 133 | ≥ 3 orders of magnitude | 27 | 72 | 98 | – | – | – | – | – | –
NC(=O)Cc1cccc(C(=O)c2ccc(Cl)cc2)c1N [Compound 9, 2-Amino-3-(4-chlorobenzoyl)-phenylacetamide] | > 100 | ≥ 3 orders of magnitude | 29 | 65 | 98 | – | – | – | – | – | –
Nc1c(CC(=O)O)cccc1C(=O)c1ccc(F)cc1 [4'-F OH, reference compound] | 0.171 | – | – | 42 | – | – | – | – | – | – | –
NC(=O)Cc1cccc(C(=O)c2ccccc2)c1N [Compound 8, 2-Amino-3-benzoyl-phenylacetamide] | 64 | ≥ 3 orders of magnitude | 81 | 61 | 98 | inhibited to a similar extent | most effective inhibitor | – | – | – | –
Nc1c(CC(=O)O)cccc1C(=O)c1ccc(Cl)cc1 [4'-Cl OH, 2-amino-3-(4-chloro-benzoyl)benzeneacetic acid, reference compound] | 0.07 | – | – | 72 | 99 | – | – | – | – | – | –
CN(C)C(=O)Cc1cccc(C(=O)c2ccc(Br)cc2)c1N [4'-Br N(CH3)2, reference compound] | > 100 | – | – | 2 | -27 | – | – | inactive | inactive | – | –
O=C(O)Cc1ccccc1Nc1c(Cl)cccc1Cl [Diclofenac, reference compound] | – | – | 50 | – | 97 | – | – | somewhat less effective | – | 54 | somewhat less effective
CNC(=O)Cc1cccc(C(=O)c2ccc(Br)cc2)c1N [Compound 16, 2-Amino-3-(4-bromobenzoyl)-N-methyl phenylacetamide] | 16 | ≥ 3 orders of magnitude | 48 | 62 | 93 | – | – | – | – | – | –
Nc1c(CC(=O)O)cccc1C(=O)c1ccccc1 [Amfenac, 2-amino-3-benzoylbenzeneacetic acid, reference compound] | 0.25 | – | – | 41 | – | – | – | – | – | – | –
Nc1c(CC(=O)O)cccc1C(=O)c1ccc(Br)cc1 [Bromfenac, reference compound] | 0.029 | – | 44 | 62 | 98 | – | – | – | – | – | –
NC(=O)Cc1cccc(C(=O)c2ccc(Br)cc2)c1N [Compound 15, 2-Amino-3-(4-bromobenzoyl)-phenylacetamide] | 19 | ≥ 3 orders of magnitude | 23 | 64 | 97 | – | – | – | – | – | –
CCOC(=O)Cc1cccc(C(=O)c2ccc(Br)cc2)c1N [Compound 14, Ethyl-2-Amino-3-(4-bromobenzoyl)benzene acetate] | > 25 | – | 33 | 60 | – | – | – | – | – | – | –

— US5475034A, “Topically administrable compositions containing 3-benzoylphenylacetic acid derivatives for treatment of ophthalmic inflammatory disorders” (Alcon Laboratories, Inc., priority 1994, dated 1995)
